Experiments:
[1] = target: isolated FAD-binding domain of human CRY1 protein (hCRY1) (Homo sapiens (Human), UniProt Q16526); assay: Thermal shift binding assay (differential scanning fluorimetry)
Method: Binding of compounds to the isolated FAD-binding domain of human CRY1 protein (hCRY1) was determined using a differential scanning fluorimetry (‘thermal shift’) assay (Pantoliano et al. (2001) J Biomol Screening 6, 429; Niesen et al. (2007) Nature Protocols 2, 2212). The FAD-binding domain of hCRY1 (amino acid residues 1-494) with a C-terminal Myc-DDK tag (FADBD), was produced by transient transfection of HEK293T cells (Catalog # CRL-3216, American Type Culture Collection) and purified by anti-FLAG affinity chromatography (Catalog # A2220, Sigma-Aldrich). FADBD (0.5 μg per well) was incubated with dilutions of compounds in DMSO (5% DMSO final concentration in reaction) in 17.5 μl Tris-buffered saline (TBS) for 10 minutes on ice, then 2.5 μl of 8× Sypro-Orange Dye (Life Technologies) was added to each well. Triplicate wells were assayed for each compound concentration. The melting temperatures were measured in an ABI7500 quantitative PCR instrument using the melt curve mode with a thermal profile of 2 minutes at 25° C., followed by a ramp rate of 1° C./minute up to 99° C. The melting temperature for each well was determined from the first derivative of the melt curve. The change in melting temperature (ΔTm) was obtained by subtraction of the melting temperature of the FADBD in 5% DMSO alone.

[2] = tested on: Dbp gene expression in whole blood; assay: Dbp mRNA in whole blood of db/db mice; format: in vivo, mouse; conditions: 100 mg/kg PO once daily for three days at ZT0, sampled ZT7.5
Method: For whole blood RNA studies, male db/db mice (9 weeks of age, The Jackson Laboratory, Bar Harbor, Me.) were used for the experiment with n=8 mice for each experimental group. […] On the final day at ZT7.5 (2:30 pm), animals were euthanized using CO2 asphyxiation, and the blood collected from the heart via cardiac puncture. The blood was placed in RNALater solution to 1.5 ml total volume. Total RNA was prepared using an Ambion Mouse RiboPure Blood RNA Isolation Kit AM1951 as follows. Samples were centrifuged for 3 minutes, discarding the supernatant. Two ml of lysis solution was added and vortexed, transferred to a 15 ml tube followed by the addition of […]. Lysis buffer was added to a total volume of 3.8 ml and vortexed. The sample mixture was extracted with 1.5 ml Acid Phenol: Chloroform and the aqueous phase was recovered. After adding 0.5 volumes of 100% ethanol and vortexing, the samples were passed through a filter column provided in the kit and washed with 750 microliters of wash buffer 1. The filter was washed with 2 passes of 750 microliters wash buffer 2/3 and dried. […]
For PCR analysis, the kit utilized was TaqMan® Fast Universal Master Mix (2×), No AmpErase® UNG. […] At least one housekeeping mRNA Expression Assay (e.g. GAPDH; Mm03302249_g1 or Hs02758991_g1) was included in each set of RNA samples to be assessed. […]

Sequence of isolated FAD-binding domain of human CRY1 protein (hCRY1) (Q16526 1-494): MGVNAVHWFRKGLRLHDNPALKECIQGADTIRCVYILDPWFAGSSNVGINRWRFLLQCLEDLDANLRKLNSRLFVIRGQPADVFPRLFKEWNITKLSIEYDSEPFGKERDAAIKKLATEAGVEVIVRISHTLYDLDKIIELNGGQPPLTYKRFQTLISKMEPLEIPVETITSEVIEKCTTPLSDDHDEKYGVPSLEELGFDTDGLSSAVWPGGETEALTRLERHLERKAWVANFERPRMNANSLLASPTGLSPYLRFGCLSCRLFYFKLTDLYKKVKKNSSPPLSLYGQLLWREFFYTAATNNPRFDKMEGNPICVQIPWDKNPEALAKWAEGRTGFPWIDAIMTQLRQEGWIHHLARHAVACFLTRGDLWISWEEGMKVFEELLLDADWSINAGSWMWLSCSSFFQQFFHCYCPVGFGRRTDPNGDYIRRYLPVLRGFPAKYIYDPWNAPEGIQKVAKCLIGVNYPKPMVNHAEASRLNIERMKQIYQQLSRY

## O=C1NCCN1CC(O)Cn1c2ccc(F)cc2c2cc(F)ccc21 (centres unmarked) [Compound 72, 1-(3-(3,6-difluoro-9H-carbazol-9-yl)-2-hydroxypropyl)imidazolidin-2-one]
[1]
  change in melting temperature (ΔTm) of hCRY1 FADBD: dose-dependent increase
[2]
  Dbp gene expression in whole blood: statistically significant suppression

Reference: patent US10759777B2, “Carbazole-containing amides, carbamates, and ureas as cryptochrome modulators” (Synchronicity Pharma, Inc., priority 2014, dated 2020)
